Test results from US10006912B2, “Peptides for diagnosing lyme disease” (B[…]., priority 2013, dated 2018).

Columns and labels:
[1] = test system: IgM in sera containing antibodies against B. burgdorferi proteins; experiment: Epitope mapping of DbpB overlapping peptide library, IgM binding; design: species or system human; conditions: 8 high titer Lyme disease patient sera; 20-AA library peptides of DbpB, B. burgdorferi B31
Method: (§1) Epitope mapping of full-length DbpB was performed by ArrayIt, Corp. (Sunnyvale, Calif.). Briefly, an overlapping peptide library consisting of 20-AA long peptides overlapping by 15-AA (offset by 5-AA) was generated using the sequence for DbpB from B. burgdorferi B31 (Accession #AAC66244). The sequence submitted for mapping lacked the first 8 AA. The library was exposed to 8 sera containing antibodies against B. burgdorferi proteins, as determined by commercial Lyme immunostrips (Viramed Biotech AG, Planegg, Germany). IgM and IgG binding were independently evaluated, and data were reported in terms of fluorescent binding intensity. Peptides generated from epitope mapping data were produced by Lifetein, Inc (South Plainfield, N.J.). […]
(§2) Linear epitope mapping of DbpB was accomplished by probing overlapping peptide libraries containing full length sequences derived from the B31 strain of B. burgdorferi sensu stricto, with serum obtained from 8 Lyme disease patients with high levels of anti-Borrelia antibody as determined using commercially available Lyme disease immunoblot strips. […]

[2] = test system: IgG in sera containing antibodies against B. burgdorferi proteins; experiment: Epitope mapping of DbpB overlapping peptide library, IgG binding; design: species or system human; conditions: 8 high titer Lyme disease patient sera; 20-AA library peptides of DbpB, B. burgdorferi B31
Method: as §1, §2

| Substance | samples in which the peptide was bound by IgM [1] | samples in which the peptide was bound by IgG [2] |
| --- | --- | --- |
| DbpB(38-57): 20-AA library peptide of DbpB from B. burgdorferi B31; one of two overlapping peptides forming DbpB(38-67) (KDLKNKILKIKKEATGKGVL) | 100% |  |
| DbpB(48-67): 20-AA library peptide of DbpB from B. burgdorferi B31; one of two overlapping peptides forming DbpB(38-67) (KKEATGKGVLFEAFTGLKTG) |  | 100% |
